Source: publication PMC6271642, “New Derivatives of 3,4-Dihydroisoquinoline-3-carboxylic Acid with Free-Radical Scavenging, D-Amino Acid Oxidase, Acetylcholinesterase and Butyrylcholinesterase Inhibitory Activity” (Molecules, 2014)

Assays:
[1] = biological target: acetylcholinesterase from Electrophorus electricus (AChE) (Electrophorus electricus, UniProt O42275); assay: biochemical
[2] = biological target: T1, D-Amino acid oxidase from porcine kidney (DAAO) (Sus scrofa, UniProt P00371); assay: colorimetric, […],4-dinitrophenylhydrazine detection of keto acid; format: biochemical; details: D-Ala substrate, 0.2 M Tris-HCl pH 8.2, 37 °C, 30 min
T1 construct: gene DAO; native enzyme from porcine kidney, Sigma-Aldrich

[3] = biological target: T2, butyrylcholinesterase from equine serum (BuChE) (Equus caballus, UniProt P81908); assay: biochemical
T2 construct: gene BCHE

[4] = biological target: T1, D-Amino acid oxidase from porcine kidney (DAAO); assay: colorimetric, […],4-dinitrophenylhydrazine detection of keto acid; format: biochemical; details: read-out: DAAO Inhibition [IC50] ^c/[%] ^d

Chain of acetylcholinesterase from Electrophorus electricus (AChE) (O42275 24-633): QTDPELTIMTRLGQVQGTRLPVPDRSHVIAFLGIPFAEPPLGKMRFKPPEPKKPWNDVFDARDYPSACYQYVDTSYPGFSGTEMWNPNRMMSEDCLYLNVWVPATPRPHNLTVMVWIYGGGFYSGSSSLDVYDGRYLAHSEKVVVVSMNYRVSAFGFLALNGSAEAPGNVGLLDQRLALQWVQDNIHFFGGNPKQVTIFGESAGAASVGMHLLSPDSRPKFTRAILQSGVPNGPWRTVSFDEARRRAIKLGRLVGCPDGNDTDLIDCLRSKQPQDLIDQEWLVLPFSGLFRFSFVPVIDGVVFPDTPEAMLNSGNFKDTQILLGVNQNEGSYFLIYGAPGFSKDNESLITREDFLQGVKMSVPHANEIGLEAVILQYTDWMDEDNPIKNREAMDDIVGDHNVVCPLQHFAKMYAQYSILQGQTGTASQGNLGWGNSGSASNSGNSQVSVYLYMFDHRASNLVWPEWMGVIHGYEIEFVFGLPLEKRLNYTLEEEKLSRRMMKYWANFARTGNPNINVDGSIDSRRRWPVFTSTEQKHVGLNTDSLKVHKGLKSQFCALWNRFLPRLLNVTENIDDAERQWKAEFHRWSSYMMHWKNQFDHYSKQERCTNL
T2 sequence (P81908 whole entry): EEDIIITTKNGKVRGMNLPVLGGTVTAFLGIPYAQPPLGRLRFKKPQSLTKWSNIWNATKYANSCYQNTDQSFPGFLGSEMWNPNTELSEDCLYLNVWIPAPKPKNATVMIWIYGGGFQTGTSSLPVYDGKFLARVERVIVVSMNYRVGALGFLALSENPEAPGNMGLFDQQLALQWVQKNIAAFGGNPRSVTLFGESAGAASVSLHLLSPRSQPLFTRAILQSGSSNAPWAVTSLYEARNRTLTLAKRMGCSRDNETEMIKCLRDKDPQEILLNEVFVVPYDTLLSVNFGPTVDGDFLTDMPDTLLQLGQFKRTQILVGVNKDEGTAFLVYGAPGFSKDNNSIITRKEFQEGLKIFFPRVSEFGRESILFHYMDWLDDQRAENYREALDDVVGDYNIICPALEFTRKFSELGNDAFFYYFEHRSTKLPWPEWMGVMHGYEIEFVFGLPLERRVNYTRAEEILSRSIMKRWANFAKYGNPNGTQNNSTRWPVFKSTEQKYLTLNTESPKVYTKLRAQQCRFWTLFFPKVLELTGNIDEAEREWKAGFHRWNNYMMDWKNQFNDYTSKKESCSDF
T1 sequence (P00371 whole entry): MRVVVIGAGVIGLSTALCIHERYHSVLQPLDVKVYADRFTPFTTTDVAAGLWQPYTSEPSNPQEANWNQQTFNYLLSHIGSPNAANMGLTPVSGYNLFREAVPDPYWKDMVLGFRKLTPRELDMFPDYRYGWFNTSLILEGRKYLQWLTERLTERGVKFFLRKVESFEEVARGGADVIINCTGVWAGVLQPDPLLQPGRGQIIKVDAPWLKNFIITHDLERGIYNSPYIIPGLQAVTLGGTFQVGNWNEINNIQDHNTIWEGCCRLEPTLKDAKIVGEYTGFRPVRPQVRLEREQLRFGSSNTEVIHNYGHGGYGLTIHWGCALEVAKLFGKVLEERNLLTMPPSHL

DAAO Inhibition [IC50] ^c/[%] ^d ([2]; unreliable (above the highest final concentration of about 3.57 mM, extrapolated)) [mM] | Structure (SMILES) | IC50 [1] [µM] | DAAO Inhibition [IC50] ^c/[%] ^d ([2]; 3570 µM, 3.57 mM compound) [%] | IC50 [3] [µM] | IC50 [4] [µM]
– | C[C@@]1(C(=O)O)Cc2cc(O)c(O)cc2C=N1 [compound 13, (S)-6,7-Dihydroxy-3-methyl-3,4-dihydroisoquinolin-3-carboxylic Acid] | 1780 | 7.89 | 620 | –
– | O=C(O)C1Cc2cc(O)cc(O)c2C=N1 (racemic) [5c, 6,8-Dihydroxy-3,4-dihydroisoquinolin-3-carboxylic acid] | – | – | – | 1660
– | O=C(O)C1Cc2cc(O)c(O)c(Cl)c2C=N1 (racemic) [5h, 8-Chloro-6,7-dihydroxy-3,4-dihydroisoquinolin-3-carboxylic acid] | 820 | – | – | 1740
– | O=C(O)C1Cc2cc(O)c(Br)c(O)c2C=N1 (racemic) [5j, 7-Bromo-6,8-dihydroxy-3,4-dihydroisoquinolin-3-carboxylic acid] | 470 | 11.50 | 640 | –
– | O=C(O)C1Cc2c(O)c(O)cc(Br)c2C=N1 (racemic) [5f, 8-Bromo-5,6-dihydroxy-3,4-dihydroisoquinolin-3-carboxylic acid] | 540 | – | – | 2060
– | O=C(O)C1Cc2c(Cl)c(O)cc(O)c2C=N1 (racemic) [5k, 5-Chloro-6,8-dihydroxy-3,4-dihydroisoquinolin-3-carboxylic acid] | 590 | 7.27 | 1420 | –
– | CC1(C(=O)O)Cc2cc(O)c(O)cc2C2C(Cl)C(=O)N21 (stereo not shown) [compound 15, 1-Chloro-7,8-dihydroxy-4-methyl-2-oxo-1,4,5,9b-tetrahydro-2H-azeto[2,1-a]-isoquinoline-4-carboxylic Acid] | – | – | 1750 | 2020
– | O=C(O)C1Cc2cc(O)c(O)cc2C=N1 (racemic) [5e, 6,7-Dihydroxy-3,4-dihydroisoquinolin-3-carboxylic acid] | 560 | 7.52 | 370 | –
– | O=C(O)C1Cc2ccc(Br)c(O)c2C=N1 (racemic) [5b, 7-Bromo-8-hydroxy-3,4-dihydroisoquinolin-3-carboxylic acid] | – | 13.88 | – | –
– | O=C(O)C1Cc2cc(O)c(O)c(Br)c2C=N1 (racemic) [5g, 8-Bromo-6,7-dihydroxy-3,4-dihydroisoquinolin-3-carboxylic acid] | – | – | – | 2000
– | O=C(O)c1ccccc1 [Benzoic acid, reference compound] | – | – | – | 2280
8.46 | O=C(O)C1Cc2c(Br)ccc(O)c2C=N1 (racemic) [5a, 5-Bromo-8-hydroxy-3,4-dihydroisoquinolin-3-carboxylic acid] | – | – | – | –
– | O=C(O)C1Cc2cc(O)c(O)c(I)c2C=N1 (racemic) [5d, 6,7-Dihydroxy-8-iodo-3,4-dihydroisoquinolin-3-carboxylic acid] | – | – | – | 3350
– | O=C(O)C1CCc2cc(O)c(O)cc2C=N1 (racemic) [compound 9, 7,8-Dihydroxy-4,5-dihydro-3H-2-benzazepine-3-carboxylic Acid] | 2080 | – | – | 550
– | O=C(O)C1Cc2c(cc(O)c(O)c2Cl)C=N1 (racemic) [5l, 5-Chloro-6,7-dihydroxy-3,4-dihydroisoquinolin-3-carboxylic acid] | – | – | 170 | 1290
